Assay results reported in ChEMBL document CHEMBL4814035, “Structure-activity relationship studies of 3-substituted pyrazoles as novel allosteric inhibitors of MALT1 protease” (Bioorg Med Chem Lett, 2021).

Key:
[1] = target: T1, Mucosa-associated lymphoid tissue lymphoma translocation protein 1 (Homo sapiens, UniProt Q9UDY8); assay: Inhibition of MALT1 (unknown origin)
T1 sequence (Q9UDY8 whole entry): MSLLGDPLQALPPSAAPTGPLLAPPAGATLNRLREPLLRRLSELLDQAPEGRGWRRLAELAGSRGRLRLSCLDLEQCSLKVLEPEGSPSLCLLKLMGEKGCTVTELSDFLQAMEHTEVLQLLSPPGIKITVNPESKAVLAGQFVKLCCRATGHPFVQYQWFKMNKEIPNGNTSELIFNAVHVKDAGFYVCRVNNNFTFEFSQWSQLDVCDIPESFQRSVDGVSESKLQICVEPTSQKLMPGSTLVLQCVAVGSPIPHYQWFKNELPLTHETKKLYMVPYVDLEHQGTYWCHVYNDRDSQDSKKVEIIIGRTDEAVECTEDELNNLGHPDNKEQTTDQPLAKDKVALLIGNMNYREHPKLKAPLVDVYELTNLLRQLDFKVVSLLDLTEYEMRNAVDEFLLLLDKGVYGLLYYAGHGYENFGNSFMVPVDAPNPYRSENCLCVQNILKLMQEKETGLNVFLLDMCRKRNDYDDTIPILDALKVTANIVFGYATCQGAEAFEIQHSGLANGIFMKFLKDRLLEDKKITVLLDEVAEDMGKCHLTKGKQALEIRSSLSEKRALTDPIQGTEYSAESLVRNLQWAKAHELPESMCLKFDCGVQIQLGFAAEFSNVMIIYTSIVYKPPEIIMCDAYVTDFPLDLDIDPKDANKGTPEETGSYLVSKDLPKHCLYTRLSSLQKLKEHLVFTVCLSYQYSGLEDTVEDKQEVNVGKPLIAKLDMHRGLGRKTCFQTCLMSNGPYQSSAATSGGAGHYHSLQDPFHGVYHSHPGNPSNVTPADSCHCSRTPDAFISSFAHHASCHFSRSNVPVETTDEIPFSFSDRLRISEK

[2] = target: T2, Mucosa-associated lymphoid tissue lymphoma translocation protein 1 (Homo sapiens) (UniProt Q9UDY8); assay: Inhibition of MALT1 (unknown origin) at 25 uM relative to control
T2 sequence (whole entry): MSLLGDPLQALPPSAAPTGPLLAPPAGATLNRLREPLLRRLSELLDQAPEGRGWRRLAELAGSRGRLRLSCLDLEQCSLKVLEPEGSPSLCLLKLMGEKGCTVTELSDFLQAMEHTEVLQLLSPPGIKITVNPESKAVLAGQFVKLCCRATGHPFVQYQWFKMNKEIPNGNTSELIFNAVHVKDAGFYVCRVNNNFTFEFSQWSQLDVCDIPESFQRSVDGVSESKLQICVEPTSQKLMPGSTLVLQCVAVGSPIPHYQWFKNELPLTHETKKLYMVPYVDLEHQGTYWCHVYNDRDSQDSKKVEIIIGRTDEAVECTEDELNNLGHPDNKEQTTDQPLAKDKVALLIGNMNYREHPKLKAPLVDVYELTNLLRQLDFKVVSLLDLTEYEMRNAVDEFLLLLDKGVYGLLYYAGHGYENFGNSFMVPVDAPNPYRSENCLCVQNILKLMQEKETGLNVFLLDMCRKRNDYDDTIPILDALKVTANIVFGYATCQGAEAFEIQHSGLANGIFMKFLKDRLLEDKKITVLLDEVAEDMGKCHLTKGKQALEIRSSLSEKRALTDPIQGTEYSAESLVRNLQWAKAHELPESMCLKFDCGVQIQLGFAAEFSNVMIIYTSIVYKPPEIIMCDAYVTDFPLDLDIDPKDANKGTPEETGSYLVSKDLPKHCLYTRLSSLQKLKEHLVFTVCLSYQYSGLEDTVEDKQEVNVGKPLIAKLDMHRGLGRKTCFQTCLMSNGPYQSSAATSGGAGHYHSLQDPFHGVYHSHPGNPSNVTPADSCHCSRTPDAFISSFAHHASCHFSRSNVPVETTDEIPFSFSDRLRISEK

[3] = target: Nuclear factor NF-kappa-B complex (Homo sapiens, UniProt P19838+Q00653+Q04206); assay: Inhibition of NF-kappaB (unknown origin); format: protein-complex assay
[4] = substrate: CN(C)CCNC(=O)c1cc(-c2ccc(Cl)cc2)n(-c2ccc(Cl)cc2)n1; settings: Homo sapiens; dose 0.5 µM
Description: Non-competitive inhibition of MALT1 (unknown origin) assessed as Michaelis-constant at 0.5 uM by Michaelis-Menten analysis (Rvb = 246.9 microM)

Sequence of Nuclear factor NF-kappa-B complex (P19838 1-433 limits assumed): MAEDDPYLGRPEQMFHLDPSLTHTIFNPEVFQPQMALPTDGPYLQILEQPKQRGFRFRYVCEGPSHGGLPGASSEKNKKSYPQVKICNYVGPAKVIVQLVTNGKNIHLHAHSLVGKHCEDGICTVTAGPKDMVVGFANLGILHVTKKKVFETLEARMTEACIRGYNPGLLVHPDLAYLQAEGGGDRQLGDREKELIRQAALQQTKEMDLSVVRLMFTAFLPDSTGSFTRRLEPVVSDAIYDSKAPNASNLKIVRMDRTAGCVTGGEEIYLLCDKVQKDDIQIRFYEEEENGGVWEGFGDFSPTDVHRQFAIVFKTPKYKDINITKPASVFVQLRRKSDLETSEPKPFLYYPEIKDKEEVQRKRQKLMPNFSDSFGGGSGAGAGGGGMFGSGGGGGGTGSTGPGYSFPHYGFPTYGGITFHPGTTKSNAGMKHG
Sequence of Nuclear factor NF-kappa-B complex (Q00653 1-454 limits assumed): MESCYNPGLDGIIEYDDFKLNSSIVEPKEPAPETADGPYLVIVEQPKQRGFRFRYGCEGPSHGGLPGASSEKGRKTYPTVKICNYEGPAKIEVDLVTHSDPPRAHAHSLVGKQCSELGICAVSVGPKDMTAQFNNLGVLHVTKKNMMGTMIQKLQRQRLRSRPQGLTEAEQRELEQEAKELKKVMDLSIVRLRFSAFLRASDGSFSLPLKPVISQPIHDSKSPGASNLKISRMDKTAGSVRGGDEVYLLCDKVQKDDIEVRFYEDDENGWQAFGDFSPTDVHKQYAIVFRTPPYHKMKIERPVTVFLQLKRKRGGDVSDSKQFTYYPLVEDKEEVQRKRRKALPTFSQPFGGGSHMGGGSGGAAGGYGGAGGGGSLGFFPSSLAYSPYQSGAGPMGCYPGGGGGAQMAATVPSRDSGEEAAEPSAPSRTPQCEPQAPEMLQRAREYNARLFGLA
Sequence of Nuclear factor NF-kappa-B complex (Q04206 whole entry): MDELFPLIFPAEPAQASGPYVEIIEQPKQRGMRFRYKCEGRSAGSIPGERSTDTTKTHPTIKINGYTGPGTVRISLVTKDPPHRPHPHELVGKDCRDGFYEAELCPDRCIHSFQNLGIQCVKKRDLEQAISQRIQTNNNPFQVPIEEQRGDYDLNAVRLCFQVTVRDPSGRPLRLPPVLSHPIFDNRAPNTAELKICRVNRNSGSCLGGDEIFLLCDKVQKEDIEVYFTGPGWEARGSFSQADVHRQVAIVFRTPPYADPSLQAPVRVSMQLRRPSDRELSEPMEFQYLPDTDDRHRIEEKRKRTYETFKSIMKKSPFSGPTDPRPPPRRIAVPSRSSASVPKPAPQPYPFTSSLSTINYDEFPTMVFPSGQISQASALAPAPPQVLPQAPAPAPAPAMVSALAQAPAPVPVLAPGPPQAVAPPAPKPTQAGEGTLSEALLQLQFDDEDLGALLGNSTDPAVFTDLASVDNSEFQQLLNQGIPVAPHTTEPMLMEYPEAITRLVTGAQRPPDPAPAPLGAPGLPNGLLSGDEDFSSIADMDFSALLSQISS

| Molecule | IC50 [1] [µM] | inhibition [2] [%] | IC50 [3] [µM] | Km [4] [µM] |
| --- | --- | --- | --- | --- |
| NC(=O)CCNC(=O)c1cc(-c2ccc(Cl)cc2)n(-c2ccc(Cl)cc2)n1 | 13.4 |  |  |  |
| O=C(NCC1CCCCC1)c1cc(-c2ccc(Cl)cc2)n(-c2ccc(Cl)cc2)n1 | > 25 |  |  |  |
| CNC(=O)c1cc(-c2ccc(Cl)cc2)n(-c2ccccc2)n1 | 19.8 | 59 |  |  |
| CNC(=O)c1cc(-c2ccc(C(F)(F)F)cc2)n(-c2ccc(Cl)cc2)n1 | > 25 | 47 |  |  |
| CC(=O)NCCNC(=O)c1cc(-c2ccc(Cl)cc2)n(-c2ccc(Cl)cc2)n1 | 3.3 |  |  |  |
| CS(=O)(=O)NCCNC(=O)c1cc(-c2ccc(Cl)cc2)n(-c2ccc(Cl)cc2)n1 | 4.37 |  |  |  |
| CN(C)CCCCNC(=O)c1cc(-c2ccc(Cl)cc2)n(-c2ccc(Cl)cc2)n1 | 2.22 |  |  |  |
| NCCNC(=O)c1cc(-c2ccc(Cl)cc2)n(-c2ccc(Cl)cc2)n1 | 1.98 |  |  |  |
| CNC(=O)c1cc(-c2cccc(Cl)c2)n(-c2ccc(Cl)cc2)n1 | > 25 | 43 |  |  |
| CNC(=O)c1cc(-c2ccc(CO)cc2)n(-c2ccc(Cl)cc2)n1 | > 25 | 19 |  |  |
| CNC(=O)c1cc(-c2ccc(S(C)(=O)=O)cc2)n(-c2ccc(Cl)cc2)n1 | > 25 | 5.7 |  |  |
| CNC(=O)c1cc(-c2ccc(Cl)cc2)n(Cc2ccccc2)n1 | 16.3 | 57 |  |  |
| O=C(c1cc(-c2ccc(Cl)cc2)n(-c2ccc(Cl)cc2)n1)N1CCCC1 | > 25 |  |  |  |
| CNC(=O)c1cc(-c2ccccc2)n(-c2ccc(Cl)cc2)n1 | 16.8 | 61 |  |  |
| CNC(=O)c1cc(-c2ccc(OC)cc2)n(-c2ccc(Cl)cc2)n1 | 6.55 | 80 |  |  |
| CN1CCC(O)CC1CNC(=O)c1cc(-c2ccc(Cl)cc2)n(-c2ccc(Cl)cc2)n1 (stereo unspecified) | 0.993 |  |  |  |
| CCN1CCC[C@@H]1CNC(=O)c1cc(-c2ccc(Cl)cc2)n(-c2ccc(Cl)cc2)n1 | 2.1 |  |  |  |
| CNC(=O)c1cc(-c2ccc(Cl)cc2)n(-c2ccc(Cl)cc2)n1 | 7.01 | 72 | 9.34 |  |
| CN(C)CCNC(=O)c1cc(-c2ccc(Cl)cc2)n(-c2ccc(Cl)cc2)n1 | 0.49 |  | 5.41 |  |
| O=C(NCC1COCCN1)c1cc(-c2ccc(Cl)cc2)n(-c2ccc(Cl)cc2)n1 (stereo unspecified) | 0.819 |  |  |  |
| CN(C)CCCNC(=O)c1cc(-c2ccc(Cl)cc2)n(-c2ccc(Cl)cc2)n1 | 2.63 |  |  |  |
| CNC(=O)c1cc(-c2ccco2)n(-c2ccc(Cl)cc2)n1 | > 25 | 20 |  |  |
| CNC(=O)c1cc(-c2ccc(Cl)cc2)n(-c2cccc(Cl)c2)n1 |  | 57 |  |  |

| Molecule | IC50 [1] [µM] | inhibition [2] [%] | IC50 [3] [µM] | Km [4] [µM] |
| --- | --- | --- | --- | --- |
| CNC(=O)c1cc(-c2ccsc2)n(-c2ccc(Cl)cc2)n1 | > 25 | 26 |  |  |
| CN(C)C1CCN(C(=O)c2cc(-c3ccc(Cl)cc3)n(-c3ccc(Cl)cc3)n2)C1 (stereo unspecified) | 10.6 |  |  |  |
| CNC(=O)c1cc(-c2ccccc2Cl)n(-c2ccc(Cl)cc2)n1 | > 25 | 23 |  |  |
| O=C(NCCCO)c1cc(-c2ccc(Cl)cc2)n(-c2ccc(Cl)cc2)n1 | 12.4 |  |  |  |
| CN1CCCC(NC(=O)c2cc(-c3ccc(Cl)cc3)n(-c3ccc(Cl)cc3)n2)C1 (stereo unspecified) | 1.7 |  |  |  |
| CNC(=O)c1cc(-c2ccc(OC(F)(F)F)cc2)n(-c2ccc(Cl)cc2)n1 | > 25 | 38 |  |  |
| NCCCNC(=O)c1cc(-c2ccc(Cl)cc2)n(-c2ccc(Cl)cc2)n1 | 7.39 |  |  |  |
| CNC(=O)c1cc(-c2ccc(Cl)cc2)n(C2CCCCC2)n1 |  | 63 |  |  |
| O=C(NCCc1ccccc1)c1cc(-c2ccc(Cl)cc2)n(-c2ccc(Cl)cc2)n1 | > 25 |  |  |  |
| O=C(NCCO)c1cc(-c2ccc(Cl)cc2)n(-c2ccc(Cl)cc2)n1 | 6.55 |  |  |  |
| CNC(=O)c1cc(-c2ccc(OC)nc2)n(-c2ccc(Cl)cc2)n1 | > 25 | 21 |  |  |
| CN1CCOC[C@H]1CNC(=O)c1cc(-c2ccc(Cl)cc2)n(-c2ccc(Cl)cc2)n1 | 2.01 |  |  |  |
| CNC(=O)c1cc(-c2ccoc2)n(-c2ccc(Cl)cc2)n1 | > 25 | 16 |  |  |
| CNC(=O)c1cc(-c2ccc(C#N)cc2)n(-c2ccc(Cl)cc2)n1 | > 25 | 31 |  |  |
| CNC(=O)c1cc(-c2ccc(F)cc2)n(-c2ccc(Cl)cc2)n1 | > 25 | 47 |  |  |
| CNC(=O)c1cc(-c2ccc(Cl)cc2)n(C)n1 | > 25 | 7.7 |  |  |
| CNC(=O)c1cc(-c2ccc(Cl)cc2)n(-c2ccccc2Cl)n1 | > 25 | 46 |  |  |
| CN1CCCCC1CNC(=O)c1cc(-c2ccc(Cl)cc2)n(-c2ccc(Cl)cc2)n1 (stereo unspecified) | 0.521 |  |  |  |
| CN(C)C(=O)c1cc(-c2ccc(Cl)cc2)n(-c2ccc(Cl)cc2)n1 | 21.2 |  |  |  |
| CSc1ccc2c(c1)N(CCC1CCCCN1C)c1ccccc1S2 (stereo unspecified) [THIORIDAZINE] | 3.43 |  |  |  |
| CNCCNC(=O)c1cc(-c2ccc(Cl)cc2)n(-c2ccc(Cl)cc2)n1 | 0.8 |  |  |  |
| Mucosa-associated lymphoid tissue lymphoma translocation protein 1 (Homo sapiens), Q9UDY8 (protein) MSLLGDPLQALPPSAAPTGPLLAPPAGATLNRLREPLLRRLSELLDQAPEGRGWRRLAELAGSRGRLRLSCLDLEQCSLKVLEPEGSPSLCLLKLMGEKGCTVTELSDFLQAMEHTEVLQLLSPPGIKITVNPESKAVLAGQFVKLCCRATGHPFVQYQWFKMNKEIPNGNTSELIFNAVHVKDAGFYVCRVNNNFTFEFSQWSQLDVCDIPESFQRSVDGVSESKLQICVEPTSQKLMPGSTLVLQCVAVGSPIPHYQWFKNELPLTHETKKLYMVPYVDLEHQGTYWCHVYNDRDSQDSKKVEIIIGRTDEAVECTEDELNNLGHPDNKEQTTDQPLAKDKVALLIGNMNYREHPKLKAPLVDVYELTNLLRQLDFKVVSLLDLTEYEMRNAVDEFLLLLDKGVYGLLYYAGHGYENFGNSFMVPVDAPNPYRSENCLCVQNILKLMQEKETGLNVFLLDMCRKRNDYDDTIPILDALKVTANIVFGYATCQGAEAFEIQHSGLANGIFMKFLKDRLLEDKKITVLLDEVAEDMGKCHLTKGKQALEIRSSLSEKRALTDPIQGTEYSAESLVRNLQWAKAHELPESMCLKFDCGVQIQLGFAAEFSNVMIIYTSIVYKPPEIIMCDAYVTDFPLDLDIDPKDANKGTPEETGSYLVSKDLPKHCLYTRLSSLQKLKEHLVFTVCLSYQYSGLEDTVEDKQEVNVGKPLIAKLDMHRGLGRKTCFQTCLMSNGPYQSSAATSGGAGHYHSLQDPFHGVYHSHPGNPSNVTPADSCHCSRTPDAFISSFAHHASCHFSRSNVPVETTDEIPFSFSDRLRISEK |  |  |  | 234 |
